Structures can show the parent of a compound that is named as a salt.
Molecular target: T1, phospholipase A₂ isolated from rat perotoneum (Rattus norvegicus, UniProt P14423)
T1 construct: Enzyme-containing exudate was aspirated through an abdominal incision; Separation of the enzyme from the exudate was accomplished by centrifugation; from tissue; host or cells: peritoneal exudate of casein-injected male Wistar rats
T1 sequence (P14423 22-146): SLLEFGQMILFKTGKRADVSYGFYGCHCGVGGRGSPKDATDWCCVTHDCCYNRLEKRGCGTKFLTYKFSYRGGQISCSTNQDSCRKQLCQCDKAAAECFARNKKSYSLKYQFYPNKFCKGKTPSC
Assay: phospholipase A₂ inhibition, spectrophotometric assay with Thio Pc Substrate (modified Hendrickson et al. procedure)
Format: biochemical
Settings: for inhibition at 100 µM: @ 1.0̸ x 10̸⁻⁴M, read-out: % PLA₂ Inhibition; for IC50: concentration of inhibitor which reduces enzymatic activity by 50̸%, printed in the column % PLA₂ Inhibition
Procedure: The substrate employed in the modified assay, was 1,2-bis(decanoylthio)-1,2-­dideoxyglycerol-3-phosphocholine (hereinafter "Thio Pc Substrate"). The enzyme utilized in the procedure was phospholipase A₂ isolated from rat perotoneum as follows:
Male Wistar rats weighing 200-300 g a piece were injected interperitoneally at a dosage of 50 ml/kg of body weight (20 g of casein as the sodium salt diluted to 500 ml in distilled water). After a period of 18-24 hours the animals were sacrificed. Thereafter, each animal was injected interperitoneally with 30 ml of an isotonic salt solution to which sodium heparin was added prior to use at a concentration of 5 units/ml. Enzyme-containing exudate was aspirated through an abdominal incision. Separation of the enzyme from the exudate was accomplished by centrifugation.
Pursuant to the assay procedure, Thio Pc Substrate was apportioned into 1.25 mg aliquots. To each aliquot was added 4 ml of 160 mM tris hydrogen chloride buffer (pH 7.5) containing 2mM of calcium chloride and 2mM of sodium taurocholate. The resulting dispersions were vortexed at room temperature to clear solutions. Inhibition activity of the alkylphospholipids of this invention was determined utilizing spectrophotometric samples prepared by the addition of 5 µl of 4,4′-dithiopyridine and 395 ml of buffered Thio Pc substrate to a perincubated dispersion of 50 µl of alkylphospholipid (appropriately diluted in buffer) in 50 µl of enzyme (appropriately diluted in buffer). Absorbence at (0.5 full scale ) was recorded at a chart speed of 2 cm/min on a Gilford Model 250 Spectrophotometer.
The percentage of phospholipase A₂ inhibition was calculated by means of the following formula: [formula] wherein "inhibitor slope" is the slope of the spectrophotometric curve obtained for a given alkylphospholipid-containing sample and 'control slope" is the slope of the spectrophotometric curve obtained for an otherwise identical sample lacking an inhibitor.

| SMILES | inhibition at 100 µM [%] | IC50 [µM] |
| --- | --- | --- |
| CCCCCCCCCCCCCCCC(O)CCCOP(=O)([O-])OCC[N+](C)(C)C (centres unmarked) [4,9-Dihydroxy-N,N,N-trimethyl-3,5-dioxa-4-phosphatetracosan-1-aminium, hydroxide, inner salt sesquihydrate] | 45.6 |  |
| CCCCCCCCCCCCCCCCC(O)CCCOP(=O)([O-])OCC[N+](C)(C)C (centres unmarked) [4,9-Dihydroxy-N,N,N-trimethyl-3,5-dioxa-4-phosphopentacosan-1-aminium, 4-oxide, hydroxide, inner salt monohydrate] |  | 95 |
| CCCCCCCCCCCCCCCCCC(CCCOP(=O)([O-])OCC[N+](C)(C)C)OCc1ccccc1 (centres unmarked) [4-Hydroxy-N,N,N-trimethyl-9-phenylmethoxy-3,5-dioxa-4-phosphahexacosan-1-aminium, 4-oxide, hydroxide, inner salt monohydrate] |  | 84 |
| CCCCCCCCCCCCCCCC(CCCOP(=O)([O-])OCC[N+](C)(C)C)OCc1ccccc1 (centres unmarked) [4-Hydroxy-N,N,N-trimethyl-9-phenylmethoxy-3,5-dioxa-4-phosphatetracosan-1-aminium, 4-oxide, hydroxide, inner salt monohydrate] | 41.8 |  |
| CCN(CC)CCCC(C)Nc1c2ccc(Cl)cc2nc2ccc(OC)cc12 (centres unmarked) [Quinacrine, reference compound] |  | 31 |

Source: patent EP0300397A2, “Hydroxy-, Alkoxy- and Benzyloxy substituted phospholipids, a process for their preparation and their use as medicaments” (HOECHST-ROUSSEL PHARMACEUTICALS INCORPORATED, priority 1987, dated 1989)
